Tests used:
[1] = target: H^+,K^+-ATPase N138L (Sus scrofa, UniProt P19156, N139L); assay: ATPase assay, N138L mutant
[2] = target: H^+,K^+-ATPase (Sus scrofa, UniProt P19156); assay: Dose-dependent inhibition of H^+,K^+-ATPase activity in the presence of 10 mM KCl
[3] = target: H^+,K^+-ATPase V331A (Sus scrofa, UniProt P19156, V332A); assay: ATPase assay, V331A mutant
[4] = target: H^+,K^+-ATPase D137L (Sus scrofa, UniProt P19156, D138L); assay: ATPase assay, D137L mutant
[5] = target: H^+,K^+-ATPase L139A (Sus scrofa, UniProt P19156, L140A); assay: ATPase assay, L139A mutant
[6] = target: H^+,K^+-ATPase V338A (Sus scrofa, UniProt P19156, V339A); assay: ATPase assay, V338A mutant
[7] = target: H^+,K^+-ATPase N138D (Sus scrofa, UniProt P19156, N139D); assay: ATPase assay, N138D mutant
[8] = target: T1, H^+,K^+-ATPase I126A (Sus scrofa, UniProt P19156, I127A); assay: ATPase assay, I126A mutant; assay type: biochemical, pig
T1 construct: made in house; host or cells: HEK293S GnT1- cells (BacMam baculovirus transduction); permeabilised membrane fractions

[9] = target: T2, H^+,K^+-ATPase I126F (Sus scrofa, UniProt P19156, I127F); assay: ATPase assay, I126F mutant; assay type: biochemical, pig
T2 construct: made in house; host or cells: HEK293S GnT1- cells (BacMam baculovirus transduction); permeabilised membrane fractions

[10] = target: H^+,K^+-ATPase Y140F (Sus scrofa, UniProt P19156, Y141F); assay: ATPase assay, Y140F mutant
[11] = target: H^+,K^+-ATPase D136L (Sus scrofa, UniProt P19156, D137L); assay: ATPase assay, D136L mutant
H^+,K^+-ATPase D136L, sequence (P19156 whole entry D137L): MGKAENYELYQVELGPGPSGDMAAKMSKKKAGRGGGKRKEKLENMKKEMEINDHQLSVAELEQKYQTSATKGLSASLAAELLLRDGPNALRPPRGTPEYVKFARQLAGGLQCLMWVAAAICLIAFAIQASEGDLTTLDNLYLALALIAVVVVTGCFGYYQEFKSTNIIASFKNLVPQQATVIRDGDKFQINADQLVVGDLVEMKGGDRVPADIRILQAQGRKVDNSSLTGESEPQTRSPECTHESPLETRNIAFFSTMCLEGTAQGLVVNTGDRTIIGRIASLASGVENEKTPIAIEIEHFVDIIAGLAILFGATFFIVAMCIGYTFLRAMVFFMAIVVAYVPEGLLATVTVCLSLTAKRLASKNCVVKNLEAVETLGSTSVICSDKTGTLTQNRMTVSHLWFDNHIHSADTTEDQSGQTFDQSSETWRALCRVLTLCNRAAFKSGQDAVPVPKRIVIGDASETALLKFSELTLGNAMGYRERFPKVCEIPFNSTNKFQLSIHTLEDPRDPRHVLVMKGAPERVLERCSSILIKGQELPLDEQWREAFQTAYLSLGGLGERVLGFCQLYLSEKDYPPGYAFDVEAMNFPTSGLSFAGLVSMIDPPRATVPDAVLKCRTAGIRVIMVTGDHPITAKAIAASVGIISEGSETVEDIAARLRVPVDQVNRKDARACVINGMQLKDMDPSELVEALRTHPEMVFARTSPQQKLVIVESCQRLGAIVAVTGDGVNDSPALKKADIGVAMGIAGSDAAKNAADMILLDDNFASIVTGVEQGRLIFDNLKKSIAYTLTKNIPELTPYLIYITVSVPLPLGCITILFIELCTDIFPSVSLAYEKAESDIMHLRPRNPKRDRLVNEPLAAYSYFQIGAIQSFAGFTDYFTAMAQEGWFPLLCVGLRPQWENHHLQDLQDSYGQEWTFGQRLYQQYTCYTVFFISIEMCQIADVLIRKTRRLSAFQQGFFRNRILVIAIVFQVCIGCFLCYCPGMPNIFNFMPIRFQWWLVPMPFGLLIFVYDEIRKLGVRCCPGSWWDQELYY
H^+,K^+-ATPase D136L, sequence (P18434 whole entry partner): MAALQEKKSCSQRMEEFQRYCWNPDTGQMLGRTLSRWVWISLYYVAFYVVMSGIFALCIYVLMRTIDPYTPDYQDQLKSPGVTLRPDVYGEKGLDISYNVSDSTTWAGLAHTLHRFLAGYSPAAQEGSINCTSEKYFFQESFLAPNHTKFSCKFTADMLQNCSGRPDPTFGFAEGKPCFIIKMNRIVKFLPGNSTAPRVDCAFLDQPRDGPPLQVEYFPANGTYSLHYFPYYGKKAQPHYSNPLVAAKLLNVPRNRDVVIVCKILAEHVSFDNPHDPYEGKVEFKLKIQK

[12] = target: H^+,K^+-ATPase F332I (Sus scrofa, UniProt P19156, F333I); assay: ATPase assay, F332I mutant
[13] = target: H^+,K^+-ATPase A335G (Sus scrofa, UniProt P19156, A336G); assay: ATPase assay, A335G mutant
H^+,K^+-ATPase A335G, sequence (P19156 whole entry A336G): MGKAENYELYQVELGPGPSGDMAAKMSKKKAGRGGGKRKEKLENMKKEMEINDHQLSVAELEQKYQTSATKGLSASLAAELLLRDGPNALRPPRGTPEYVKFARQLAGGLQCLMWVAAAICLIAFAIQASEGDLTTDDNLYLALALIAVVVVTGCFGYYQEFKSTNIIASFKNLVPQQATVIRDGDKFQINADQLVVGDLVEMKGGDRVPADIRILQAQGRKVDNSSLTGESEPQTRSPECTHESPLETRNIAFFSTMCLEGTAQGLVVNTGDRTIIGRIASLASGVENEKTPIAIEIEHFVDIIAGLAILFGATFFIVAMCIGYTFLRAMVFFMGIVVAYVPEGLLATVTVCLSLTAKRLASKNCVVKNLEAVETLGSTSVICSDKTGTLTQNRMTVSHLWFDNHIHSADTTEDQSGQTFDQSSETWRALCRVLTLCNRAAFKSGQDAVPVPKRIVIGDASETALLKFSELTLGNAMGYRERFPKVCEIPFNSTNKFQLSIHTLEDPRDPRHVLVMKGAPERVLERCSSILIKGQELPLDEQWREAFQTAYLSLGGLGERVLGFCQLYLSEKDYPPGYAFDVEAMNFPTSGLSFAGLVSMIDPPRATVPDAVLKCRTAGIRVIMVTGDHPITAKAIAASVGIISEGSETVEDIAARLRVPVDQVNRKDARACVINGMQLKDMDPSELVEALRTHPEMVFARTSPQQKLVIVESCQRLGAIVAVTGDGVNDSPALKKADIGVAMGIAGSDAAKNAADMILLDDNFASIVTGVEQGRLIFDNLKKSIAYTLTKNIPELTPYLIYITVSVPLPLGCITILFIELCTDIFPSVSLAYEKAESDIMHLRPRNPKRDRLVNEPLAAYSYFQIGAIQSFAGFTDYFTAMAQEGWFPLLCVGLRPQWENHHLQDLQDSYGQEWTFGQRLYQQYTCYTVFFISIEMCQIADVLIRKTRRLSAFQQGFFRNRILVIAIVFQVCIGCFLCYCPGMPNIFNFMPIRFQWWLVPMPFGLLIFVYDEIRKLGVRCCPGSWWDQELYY
H^+,K^+-ATPase A335G, sequence (P18434 whole entry partner): as the sequence (P18434 whole entry partner) above

[14] = target: H^+,K^+-ATPase D137N/N138D (Sus scrofa, UniProt P19156, D138N/N139D); assay: ATPase assay, D137N/N138D mutant
[15] = target: H^+,K^+-ATPase D136I (Sus scrofa, UniProt P19156, D137I); assay: ATPase assay, D136I mutant
[16] = target: H^+,K^+-ATPase D136A (Sus scrofa, UniProt P19156, D137A); assay: ATPase assay, D136A mutant
[17] = target: H^+,K^+-ATPase A339S (Sus scrofa, UniProt P19156, A340S); assay: ATPase assay, A339S mutant
[18] = target: H^+,K^+-ATPase Q127A (Sus scrofa, UniProt P19156, Q128A); assay: ATPase assay, Q127A mutant
[19] = target: H^+,K^+-ATPase D137I (Sus scrofa, UniProt P19156, D138I); assay: ATPase assay, D137I mutant
[20] = test system: H^+,K^+-ATPase; design: method as in doi:10.1016/j.tetlet.2006.02.156; settings: cited from earlier work
[21] = target: H^+,K^+-ATPase L809F (Sus scrofa, UniProt P19156, L810F); assay: ATPase assay, L809F mutant
[22] = target: T3, H^+,K^+-ATPase WT (Sus scrofa, UniProt P19156); assay: K^+-competitive inhibition of H^+,K^+-ATPase activity, 96-well ATPase assay, wild-type; assay type: biochemical, pig; settings: WT
T3 construct: made in house; host or cells: HEK293S GnT1- cells (BacMam baculovirus transduction); permeabilised membrane fractions

[23] = target: H^+,K^+-ATPase N138A (Sus scrofa, UniProt P19156, N139A); assay: ATPase assay, N138A mutant
[24] = target: H^+,K^+-ATPase N138F (Sus scrofa, UniProt P19156, N139F); assay: ATPase assay, N138F mutant
[25] = target: H^+,K^+-ATPase Y799F (Sus scrofa, UniProt P19156, Y800F); assay: ATPase assay, Y799F mutant
[26] = target: H^+,K^+-ATPase L800F (Sus scrofa, UniProt P19156, L801F); assay: ATPase assay, L800F mutant
H^+,K^+-ATPase L800F, sequence (P19156 whole entry L801F): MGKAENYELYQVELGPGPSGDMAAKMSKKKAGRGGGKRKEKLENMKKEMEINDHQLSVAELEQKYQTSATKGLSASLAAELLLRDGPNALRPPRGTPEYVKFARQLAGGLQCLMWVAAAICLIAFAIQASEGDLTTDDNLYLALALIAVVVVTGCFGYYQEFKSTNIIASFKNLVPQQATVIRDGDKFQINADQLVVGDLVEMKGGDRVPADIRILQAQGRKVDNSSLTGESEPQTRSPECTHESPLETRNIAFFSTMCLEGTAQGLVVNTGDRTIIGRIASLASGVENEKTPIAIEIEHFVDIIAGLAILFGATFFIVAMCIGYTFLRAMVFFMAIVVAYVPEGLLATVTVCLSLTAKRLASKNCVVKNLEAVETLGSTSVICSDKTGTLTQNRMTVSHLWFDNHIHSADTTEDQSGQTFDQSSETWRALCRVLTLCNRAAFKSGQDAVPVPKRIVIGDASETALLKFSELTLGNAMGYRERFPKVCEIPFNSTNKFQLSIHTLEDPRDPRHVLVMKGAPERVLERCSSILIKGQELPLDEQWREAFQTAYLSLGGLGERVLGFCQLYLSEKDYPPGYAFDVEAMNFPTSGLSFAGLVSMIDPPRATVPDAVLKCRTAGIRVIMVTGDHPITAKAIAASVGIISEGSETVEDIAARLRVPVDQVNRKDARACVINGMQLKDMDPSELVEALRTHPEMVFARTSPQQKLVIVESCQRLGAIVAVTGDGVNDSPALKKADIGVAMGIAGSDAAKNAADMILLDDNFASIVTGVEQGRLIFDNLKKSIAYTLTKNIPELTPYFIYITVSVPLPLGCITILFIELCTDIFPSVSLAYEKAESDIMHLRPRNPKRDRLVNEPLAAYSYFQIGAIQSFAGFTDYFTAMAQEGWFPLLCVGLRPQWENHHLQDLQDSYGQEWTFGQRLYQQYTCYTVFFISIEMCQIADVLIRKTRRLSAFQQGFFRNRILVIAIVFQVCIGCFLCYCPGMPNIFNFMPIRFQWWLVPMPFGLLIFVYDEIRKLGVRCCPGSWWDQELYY
H^+,K^+-ATPase L800F, sequence (P18434 whole entry partner): as the sequence (P18434 whole entry partner) above

H^+,K^+-ATPase D137L, sequence (P19156 whole entry D138L): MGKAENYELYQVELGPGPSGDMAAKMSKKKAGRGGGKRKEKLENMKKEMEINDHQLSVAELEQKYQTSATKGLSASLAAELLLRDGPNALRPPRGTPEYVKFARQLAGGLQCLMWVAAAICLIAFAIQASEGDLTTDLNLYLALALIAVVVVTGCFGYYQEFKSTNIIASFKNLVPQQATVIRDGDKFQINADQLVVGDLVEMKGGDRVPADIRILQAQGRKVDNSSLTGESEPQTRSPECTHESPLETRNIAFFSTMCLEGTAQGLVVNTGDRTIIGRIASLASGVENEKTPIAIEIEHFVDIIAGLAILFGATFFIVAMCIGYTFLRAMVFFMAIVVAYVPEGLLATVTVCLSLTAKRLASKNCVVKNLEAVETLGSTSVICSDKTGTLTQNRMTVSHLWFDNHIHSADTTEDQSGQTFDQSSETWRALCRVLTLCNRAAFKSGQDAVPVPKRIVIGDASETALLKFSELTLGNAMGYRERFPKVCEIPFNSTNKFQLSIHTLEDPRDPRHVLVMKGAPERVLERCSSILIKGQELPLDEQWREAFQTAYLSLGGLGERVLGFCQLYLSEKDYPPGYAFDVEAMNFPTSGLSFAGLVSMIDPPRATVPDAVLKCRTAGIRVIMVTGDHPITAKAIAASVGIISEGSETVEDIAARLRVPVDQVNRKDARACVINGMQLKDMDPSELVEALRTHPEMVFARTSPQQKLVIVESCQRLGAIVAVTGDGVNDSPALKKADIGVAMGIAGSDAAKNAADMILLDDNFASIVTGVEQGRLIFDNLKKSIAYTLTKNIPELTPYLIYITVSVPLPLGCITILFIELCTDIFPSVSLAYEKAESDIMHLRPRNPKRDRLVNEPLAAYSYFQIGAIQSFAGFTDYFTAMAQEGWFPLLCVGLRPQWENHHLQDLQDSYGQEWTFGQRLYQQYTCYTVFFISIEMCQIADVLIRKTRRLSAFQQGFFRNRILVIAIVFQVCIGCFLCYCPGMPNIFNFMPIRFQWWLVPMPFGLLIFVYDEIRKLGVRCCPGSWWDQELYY
H^+,K^+-ATPase D137L, sequence (P18434 whole entry partner): as the sequence (P18434 whole entry partner) above

Ki [1]: 1300 ± 500 nM
-fold increase in K i compared with wild-type ([1]; N138L): 220 fold
IC50 [2]: 77 nM
Ki [3]: 47 ± 3 nM
-fold increase in K i compared with wild-type ([3]; V331A): 8.1 fold
Ki [4]: 220 ± 40 nM
-fold increase in K i compared with wild-type ([4]; D137L): 38 fold
Ki [5]: 14 ± 2 nM
-fold increase in K i compared with wild-type ([5]; L139A): 2.4 fold
Ki [6]: 50 ± 7 nM
-fold increase in K i compared with wild-type ([6]; V338A): 8.6 fold
Ki [7]: 7.7 ± 0.7 nM
-fold increase in K i compared with wild-type ([7]; N138D): 1.3 fold
-fold increase in K i compared with wild-type ([8]; I126A): 19 fold
Ki ([8]; I126A (M1), high H^+-ATPase activity, K i determined by K m/V max plot): 110 ± 50 nM
-fold increase in K i compared with wild-type ([9]; I126F): 4.1 fold
Ki ([9]; I126F (M1), high H^+-ATPase activity, K i determined by K m/V max plot): 24 ± 15 nM
Ki [10]: 35 ± 6 nM
-fold increase in K i compared with wild-type ([10]; Y140F): 6.0 fold
Ki [11]: 5.3 ± 0.5 nM
-fold increase in K i compared with wild-type ([11]; D136L): 0.9 fold
Ki [12]: 8.9 ± 0.7 nM
-fold increase in K i compared with wild-type ([12]; F332I): 1.5 fold
Ki [13]: 1.2 ± 0.1 nM
-fold increase in K i compared with wild-type ([13]; A335G): 0.2 fold
fold increased affinity ([13]; A335G vs WT): 5 fold
Ki [14]: 110 ± 10 nM
-fold increase in K i compared with wild-type ([14]; D137N/N138D): 19 fold
Ki [15]: 15 ± 2 nM
-fold increase in K i compared with wild-type ([15]; D136I): 2.6 fold
Ki [16]: 10 ± 1 nM
-fold increase in K i compared with wild-type ([16]; D136A): 1.7 fold
Ki [17]: 21 ± 1 nM
-fold increase in K i compared with wild-type ([17]; A339S): 3.6 fold
Ki [18]: 19 ± 1 nM
-fold increase in K i compared with wild-type ([18]; Q127A): 3.3 fold
Ki [19]: 62 ± 15 nM
-fold increase in K i compared with wild-type ([19]; D137I): 11 fold
Ki [21]: 850 ± 130 nM
-fold increase in K i compared with wild-type ([21]; L809F): 150 fold
-fold increase in K i compared with wild-type [22]: 1.0 fold
Ki ([22]; global fitting, mean ± SEM): 5.8 ± 0.6 nM
Ki [23]: 1.4 ± 0.3 nM
-fold increase in K i compared with wild-type ([23]; N138A): 0.2 fold
Ki [24]: 7700 ± 1200 nM
-fold increase in K i compared with wild-type ([24]; N138F): 1300 fold
Ki [25]: 110 ± 10 nM
-fold increase in K i compared with wild-type ([25]; Y799F): 19 fold
Ki [26]: 59 ± 5 nM
-fold increase in K i compared with wild-type ([26]; L800F): 10 fold
Compound: Cc1nc2c3c(ccn2c1C)[C@@H](O)[C@H](O)[C@@H](c1ccccc1)N3 [BYK99]
fold higher affinity than SCH28080 [20]: more than 20 fold
